Reference: patent publication US20080249043A1, “Methods and Compositions Involving Protein Kinase C-Delta” (priority 2004, published 2008)

How the values were obtained:
Assay type in all cases: cell-based
[1] = test system: PLS3; assay: PLS3 threonine phosphorylation: Ni-bead pulldown of His-tagged PLS3, Western blot with PT antibody, HeLa cells; settings: HeLa cells with His-tagged PLS3, AD198 0, 2, 4 and 6 h
Description: Pulldown of His-tagged proteins from transfected HeLa cells—Transfected HeLa cells were washed with ice-cold phosphate-buffered saline (PBS) and incubated in the lysis buffer (50 mM NaH2PO4, 500 mM NaCl, 20 mM imidazole, 1% Triton X-100, 20 mM 2-mercaptoethanol, pH8.0) for 5 min and sonicated briefly on ice. The lysates were centrifuged at 10,000×g for 10 min at 4° C. The supernatant was saved and the protein concentration was measured with the Bio-Rad protein assay (Bio-Rad Laboratories, Hercules, Calif.) and adjusted to same concentrations for each sample. The supernatants were incubated with Ni-beads on a shaker for 2 h at 4° C. Beads were then pelleted at 800×g for 2 min at 4° C. and washed with ice-cold wash buffer (50 mM NaH2PO4, 500 mM NaCl, 20 mM imidazole, 1% Triton X-100, pH8.0) for five times. Beads were resuspended in SDS sample buffer and analyzed by Western blotting.
Western blot analysis—Equal amounts of protein were analyzed by 10% SDS-PAGE and electrotransferred to Immobilon-P membranes (Millipore Corporation, Bedford, Mass.). Monoclonal PKC-δ, PT, and β-actin and polyclonal VDAC antibodies were used at 1:1,000 and polyclonal PLS3 antibody was used at 1:2,000 for immunoblotting. Secondary anti-mouse or anti-rabbit antibodies conjugated with horseradish peroxidase were used at 1:2,000 and incubated with the membrane for 1 h at room temperature. […]

[2] = test system: mitochondria from HeLa cells; assay: tBid-binding capacity of mitochondria isolated from HeLa cells (FITC-tBid(G94E)); settings: 5 μM AD198 4 h, versus DMSO-treated control cells
Description: (a) Increased tBid-binding capacity by AD198. Mitochondria were isolated from HeLa cells treated with 5 μM AD198 or DMSO as control for 4 h. Mitochondria (50 μg by protein) were incubated with 0, 10, 20, 60 and 100 ng/μl FITC-tBid(G94E) in total volume 50 μl for […] followed by washing to remove unbounded probes. The fluorescent intensity was quantified with Bio-Tek microplate reader. Error bars indicate standard deviations of three independent experiments. (b) Dose response with mitochondria. Various amounts of mitochondria in (a) were incubated with 10 ng/μl tBid(G94E)-FITC as in (a). The fluorescent intensity of the washed mitochondria was quantified with Bio-Tek microplate reader. (c) Expression of PLS3 or PLS3(T21D) in selected HeLa cells. […] The tBid-binding capacity of the mitochondria from each cells were analyzed as in (a). […] Mitochondria were isolated from cells in (c) and analyzed as in (b).
Analysis of the tBid-binding capacity of mitochondria—Isolated mitochondria were incubated with FITC-tBid(G94E) in 50 μl reaction buffer (250 mM sucrose, 20 mM HEPES, 10 mM KCl, 3 mM KH2PO4, 1.5 mM MgCl2, 1 mM EGTA, 0.5% mg/ml BSA, PH 7.4) for 30 min at room temperature. Mitochondria were pelleted at 10,000×g and washed extensively with the reaction buffer to remove unbound FITC-tBid(G94E) and the fluorescence intensity was quantified with Bio-Tek microplate reader.

[3] = test system: HeLa cells; assay: CL distribution in mitochondria by NAO staining and flow cytometry in HeLa cells; settings: 5 μM AD198 4 h
Description: (a) HeLa cells were treated with 5 μM AD198 or DMSO as control for 4 h. Cells were stained with different concentrations of NAO and the median fluorescent intensity was determined by flow cytometry. (b) The median fluorescent intensity value of control cells stained with 35 μM NAO was considered as 100% and used to calculate the percentages in each NAO concentration. Results were average of two independent experiments. (c) After transfection for 48 h, HeLa-control, HeLa-PLS3 and HeLa-PLS3(T21D) cells were stained with different concentrations of NAO and the median fluorescent intensity was determined by flow cytometry. The median fluorescent intensity value of 35 μM NAO was considered as 100% and used to calculate the percentage in each NAO concentration. Results were average of two independent experiments.
Analysis of CL distribution in the mitochondria outer membrane—NAO was used to determine the distribution of CL in mitochondria (Garcia Fernandez, et al. Anal Biochem 328:174-180 (2004)). When NAO binds CL at 2:1 ratio (in the saturated state), fluorescence emission occurs at 630 nm. When cells were incubated with increasing concentrations of NAO, NAO saturates CL in the outer member first and then the inner member of mitochondria. Lower concentrations of NAO (2.5-12 μM) were used to saturate CL in the mitochondrial outer member and to measure the amount of CL in that compartment. […]

CCCCC(=O)OCC(=O)[C@]1(O)Cc2c(O)c3c(c(O)c2[C@@H](O[C@H]2C[C@H](NCc4ccccc4)[C@H](O)[C@H](C)O2)C1)C(=O)c1c(OC)cccc1C3=O [AD198, N-benzyladriamycin-14-valerate]
threonine phosphorylation of PLS3 [1]: steadily increased
tBid-binding capacity of mitochondria [2]: significantly higher tBid-binding capacity
absolute NAO fluorescence (amount of CL) ([3]; HeLa cells): decrease in absolute NAO fluorescence
percentage of CL in the outer membrane ([3]; NAO concentrations lower than 9 μM): higher percentage of CL than control cells
